Measurements: PubChem BioAssay AID248 (DTP/NCI, 2004)
“And” between values parts separate entries of the source, which are not always exact repeats. Equal values may be shown once. Toxic doses and inconclusive results are not listed. No stated cut-off is given here; in the data, active means T/C of 150% or more; inactive means T/C below 125%.

System: L1210 leukemia ip in BDF1 mice, survival T/C
Assay: NCI In Vivo Anticancer Drug Screen. Data for tumor model L1210 Leukemia (intraperitoneal) in B6D2F1 (BDF1) mice
Conditions: endpoint: mean survival time, higher = longer survival
Summary of the method: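 Value reflects the ratio of survival in compound-treated mice to survival in vehicle-treated controls, with both groups carrying the same transplanted tumor.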

[1] = dose: 100.0 mg/kg/injection, schedule: Q01DX001 (ip), vehicle: saline
[2] = dose: 200.0 mg/kg/injection, schedule: Q01DX001 (ip), vehicle: saline
[3] = dose: 400.0 mg/kg/injection, schedule: Q01DX001 (ip), vehicle: saline
[4] = dose: 100.0 mg/kg/injection, schedule: Q04DX003 (ip), vehicle: saline
[5] = dose: 200.0 mg/kg/injection, schedule: Q04DX003 (ip), vehicle: saline
[6] = dose: 400.0 mg/kg/injection, schedule: Q04DX003 (ip), vehicle: saline

Measured: T/C

CN1CCCC1=O
inactive: dose: 50.0 mg/kg/injection, schedule: Q01DX009 (ip), vehicle: saline with Tween-80 91 % of control | dose: 100.0 mg/kg/injection, schedule: Q01DX009 (ip), vehicle: saline with Tween-80 88 % of control | dose: 200.0 mg/kg/injection, schedule: Q01DX009 (ip), vehicle: saline with Tween-80 102 % of control

Clc1ccccc1Nc1ccnc(SCc2ccccc2)n1
inactive: dose: 25.0 mg/kg/injection, schedule: Q01DX001 (ip), vehicle: DMSO 93 % of control | dose: 25.0 mg/kg/injection, schedule: Q04DX003 (ip), vehicle: DMSO 96 % of control | dose: 50.0 mg/kg/injection, schedule: Q01DX001 (ip), vehicle: DMSO 100 % of control | dose: 50.0 mg/kg/injection, schedule: Q04DX003 (ip), vehicle: DMSO 95 % of control | dose: 100.0 mg/kg/injection, schedule: Q01DX001 (ip), vehicle: DMSO 88 % of control and 92 % of control | dose: 100.0 mg/kg/injection, schedule: Q04DX003 (ip), vehicle: DMSO 93 % of control

CCCOP(=S)(N1CC1)N1CC1
inactive: dose: 44.0 mg/kg/injection, schedule: Q01DX001 (ip), vehicle: saline 114 % of control

Cc1ccc(C(=O)NCc2ccc(CCc3nc(N)nc(N)c3-c3ccc(Cl)c(Cl)c3)cc2)cc1S(=O)(=O)F
inactive: dose: 100.0 mg/kg/injection, schedule: Q01DX001 (ip), vehicle: saline with Tween-80 100 % of control | dose: 200.0 mg/kg/injection, schedule: Q01DX001 (ip), vehicle: saline with Tween-80 110 % of control | dose: 400.0 mg/kg/injection, schedule: Q01DX001 (ip), vehicle: saline with Tween-80 114 % of control

O=C(Nc1ccc([N+](=O)[O-])cc1)N1CCCCC1
inactive: [1] 95 % of control | [2] 95 % of control | [3] 97 % of control

Cc1c2oc3c(C)ccc(C(=O)NC4C(=O)NC(C(C)C)C(=O)N5CCCC5C(=O)N(C)CC(=O)N(C)C(C(C)C)C(=O)OC4C)c3nc-2c(C(=O)NC2C(=O)NC(C(C)C)C(=O)N3CCCC3C(=O)N(C)CC(=O)N(C)C(C(C)C)C(=O)OC2C)cc1=O (stereo not drawn)
inactive: dose: 0.1 mg/kg/injection, schedule: Q01DX009 (ip), vehicle: saline + alcohol 101 % of control | dose: 0.2 mg/kg/injection, schedule: Q01DX001 (ip), vehicle: saline + alcohol 102 % of control | dose: 0.2 mg/kg/injection, schedule: Q01DX009 (ip), vehicle: saline + alcohol 107 % of control | dose: 0.25 mg/kg/injection, schedule: Q01DX009 (ip), vehicle: saline + alcohol 101 % of control | dose: 0.4 mg/kg/injection, schedule: Q01DX001 (ip), vehicle: saline + alcohol 104 % of control | dose: 0.4 mg/kg/injection, schedule: Q01DX009 (ip), vehicle: saline + alcohol 112 % of control | dose: 0.5 mg/kg/injection, schedule: Q01DX009 (ip), vehicle: saline + alcohol 97 % of control | dose: 0.6 mg/kg/injection, schedule: Q04DX003 (ip), vehicle: saline + alcohol 101 % of control | dose: 0.8 mg/kg/injection, schedule: Q01DX001 (ip), vehicle: saline + alcohol 104 % of control | dose: 1.0 mg/kg/injection, schedule: Q01DX009 (ip), vehicle: saline + alcohol 93 % of control | dose: 1.2 mg/kg/injection, schedule: Q04DX003 (ip), vehicle: saline + alcohol 109 % of control | dose: 1.25 mg/kg/injection, schedule: Q04DX003 (ip), vehicle: saline + alcohol 96 % of control | dose: 1.6 mg/kg/injection, schedule: Q01DX001 (ip), vehicle: saline + alcohol 106 % of control | dose: 2.0 mg/kg/injection, schedule: Q01DX009 (ip), vehicle: saline + alcohol 106 % of control | dose: 2.4 mg/kg/injection, schedule: Q04DX003 (ip), vehicle: saline + alcohol 119 % of control | dose: 2.5 mg/kg/injection, schedule: Q04DX003 (ip), vehicle: saline + alcohol 97 % of control | dose: 3.2 mg/kg/injection, schedule: Q01DX001 (ip), vehicle: saline + alcohol 111 % of control | dose: 4.0 mg/kg/injection, schedule: Q01DX009 (ip), vehicle: saline + alcohol 103 % of control | dose: 5.0 mg/kg/injection, schedule: Q04DX003 (ip), vehicle: saline + alcohol 105 % of control | dose: 6.4 mg/kg/injection, schedule: Q01DX001 (ip), vehicle: saline + alcohol 117 % of control | dose: 10.0 mg/kg/injection, schedule: Q04DX003 (ip), vehicle: saline + alcohol 106 % of control | dose: 20.0 mg/kg/injection, schedule: Q04DX003 (ip), vehicle: saline + alcohol 116 % of control | dose: 12.5 micrograms/kg/injection, schedule: Q01DX009 (ip), vehicle: saline + alcohol 101 % of control | dose: 50.0 micrograms/kg/injection, schedule: Q01DX009 (ip), vehicle: saline + alcohol 103 % of control | dose: 75.0 micrograms/kg/injection, schedule: Q04DX003 (ip), vehicle: saline + alcohol 104 % of control | dose: 150.0 micrograms/kg/injection, schedule: Q04DX003 (ip), vehicle: saline + alcohol 102 % of control | dose: 300.0 micrograms/kg/injection, schedule: Q04DX003 (ip), vehicle: saline + alcohol 106 % of control

Nc1ccc(S(=O)(=O)Nc2cnc3ccccc3n2)cc1
inactive: dose: 50.0 mg/kg/injection, schedule: Q01DX009 (ip), vehicle: saline 99 % of control | dose: 100.0 mg/kg/injection, schedule: Q01DX009 (ip), vehicle: saline 92 % of control | dose: 100.0 mg/kg/injection, schedule: Q04DX002 (ip), vehicle: saline 91 % of control | dose: 200.0 mg/kg/injection, schedule: Q01DX009 (ip), vehicle: saline 89 % of control | dose: 200.0 mg/kg/injection, schedule: Q04DX002 (ip), vehicle: saline 94 % of control

O=c1[nH]cc[nH]1
inactive: [1] 100 % of control | dose: 178.0 mg/kg/injection, schedule: Q01DX009 (ip), vehicle: saline 109 % of control | [2] 105 % of control | dose: 267.0 mg/kg/injection, schedule: Q01DX009 (ip), vehicle: Klucel (hydroxypropylcellulose) (HPC) 106 % of control | dose: 267.0 mg/kg/injection, schedule: Q01DX009 (ip), vehicle: saline 119 % of control | dose: 267.0 mg/kg/injection, schedule: Q04DX003 (ip), vehicle: Klucel (hydroxypropylcellulose) (HPC) 105 % of control | [3] 109 % of control | dose: 400.0 mg/kg/injection, schedule: Q01DX009 (ip), vehicle: Klucel (hydroxypropylcellulose) (HPC) 117 % of control | dose: 400.0 mg/kg/injection, schedule: Q04DX003 (ip), vehicle: Klucel (hydroxypropylcellulose) (HPC) 104 % of control | dose: 600.0 mg/kg/injection, schedule: Q04DX003 (ip), vehicle: Klucel (hydroxypropylcellulose) (HPC) 109 % of control

CC(=O)Nn1nnnc1N
inactive: [4] 99 % of control | [5] 91 % of control | [6] 105 % of control

CC(C)(C)COC(=O)C(C)(C)CC(C)(C)C
inactive: [1] 93 % of control | dose: 187.0 mg/kg/injection, schedule: Q01DX001 (ip), vehicle: carboxymethylcellulose (CMC) 92 % of control | [2] 102 % of control | dose: 267.0 mg/kg/injection, schedule: Q01DX001 (ip), vehicle: carboxymethylcellulose (CMC) 97 % of control | dose: 400.0 mg/kg/injection, schedule: Q01DX001 (ip), vehicle: carboxymethylcellulose (CMC) 96 % of control | dose: 600.0 mg/kg/injection, schedule: Q01DX001 (ip), vehicle: carboxymethylcellulose (CMC) 96 % of control

COc1ccc(N2C(=O)CC(Sc3ccccc3N)C2=O)cc1 (stereo not drawn)
inactive: dose: 100.0 mg/kg/injection, schedule: Q01DX009 (ip), vehicle: other 102 % of control | [4] 94 % of control | dose: 200.0 mg/kg/injection, schedule: Q01DX009 (ip), vehicle: other 91 % of control | [5] 90 % of control | dose: 400.0 mg/kg/injection, schedule: Q01DX009 (ip), vehicle: other 91 % of control | [6] 90 % of control

COc1cc2c(c(OC)c1OC)-c1ccc(N)c(=O)cc1[C@@H](NC(C)=O)CC2
inactive: dose: 0.5 mg/kg/injection, schedule: Q01DX015 (ip), vehicle: saline 116 % of control | dose: 1.0 mg/kg/injection, schedule: Q01DX015 (ip), vehicle: saline 118 % of control | dose: 2.0 mg/kg/injection, schedule: Q01DX001 (ip), vehicle: saline 112 % of control | dose: 2.0 mg/kg/injection, schedule: Q01DX015 (ip), vehicle: saline 92 % of control | dose: 4.0 mg/kg/injection, schedule: Q01DX001 (ip), vehicle: saline 100 % of control | dose: 4.0 mg/kg/injection, schedule: Q01DX015 (ip), vehicle: saline 116 % of control | dose: 8.0 mg/kg/injection, schedule: Q01DX001 (ip), vehicle: saline 98 % of control | dose: 16.0 mg/kg/injection, schedule: Q01DX001 (ip), vehicle: saline 104 % of control

Cc1noc2c1CCCC2
inactive: dose: 100.0 mg/kg/injection, schedule: Q04DX003 (ip), vehicle: carboxymethylcellulose (CMC) 103 % of control | dose: 200.0 mg/kg/injection, schedule: Q04DX003 (ip), vehicle: carboxymethylcellulose (CMC) 106 % of control
